The results in this text go back to ChEMBL document CHEMBL1133927, “Antimalarial t-butylperoxyamines” (Bioorg Med Chem Lett, 2001).

The subject of assay [1] is Mus musculus. As to the kind of experiment: In vivo antimalarial activity against Plasmodium berghei in mice (Mus musculus); Active at 160 mg/kg. The assay is classed as functional, organism-based. Also noted: dose 160 mg/kg.
For assay [2], the system named is Mus musculus. The experiment in a line: Mean survival time of mice (Mus musculus) infected with Plasmodium berghei after administration of compound at the dose of 40 mg/kg. The assay is classed as functional.
Assay [3] concerns Mus musculus. The experiment in a line: Mean survival time of mice (Mus musculus) infected with Plasmodium berghei after administration of compound at the dose of 80 mg/kg. The assay is classed as functional.
The test system of assay [4] is Mus musculus. The experiment in a line: Mean survival time of mice (Mus musculus) infected with Plasmodium berghei after administration of compound at the dose of 160 mg/kg. The assay is classed as functional.
Assay [5] concerns Mus musculus. As to the kind of experiment: Mean survival time of mice (Mus musculus) infected with Plasmodium berghei after administration of compound at the dose of 20 mg/kg. The assay is classed as functional.
For assay [6], the system named is Plasmodium falciparum. The experiment in a line: (§1) In vitro schizont maturation inhibition for chloroquine-sensitive Plasmodium falciparum FJB D9. The assay is classed as functional, organism-based.
Assay [7] deals with Plasmodium falciparum. The experiment in a line: (§2) In vitro schizont maturation inhibition for chloroquine-sensitive Plasmodium falciparum FSH 14. The assay is classed as functional, organism-based.
Assay [8] has as its system Plasmodium falciparum. As to the kind of experiment: (§3) In vitro total parasite growth inhibition for chloroquine-sensitive Plasmodium falciparum FJB D9. The assay is classed as functional, organism-based.
Assay [9] deals with Plasmodium falciparum. The experiment in a line: (§4) In vitro total parasite growth inhibition for chloroquine-sensitive Plasmodium falciparum FSH 14. The assay is classed as functional, organism-based.
The test system of assay [10] is Plasmodium falciparum. The description is as §1. The assay is classed as functional.
The test system of assay [11] is Plasmodium falciparum. The assay is described as §2. The assay is classed as functional.
In assay [12] the test system is Plasmodium falciparum. The description is as §3. The assay is classed as functional.
Assay [13] relates to Plasmodium falciparum. The assay is described as §4. The assay is classed as functional.
Assay [14] deals with Mus musculus. As to the kind of experiment: In vivo antimalarial activity against Plasmodium berghei in mice (Mus musculus); Inactive. The assay is classed as functional, organism-based.
Assay [15] has as its system Mus musculus. As to the kind of experiment: In vivo antimalarial activity against Plasmodium berghei in mice (Mus musculus); Active at 80 and 160 mg/kg. More on the design: dose 160 mg/kg. The assay is classed as functional, organism-based.
The test system of assay [16] is Mus musculus. As to the kind of experiment: In vivo antimalarial activity against Plasmodium berghei in mice (Mus musculus); In active. The assay is classed as functional, organism-based.
Assay [17] relates to Mus musculus. The experiment in a line: In vivo antimalarial activity against Plasmodium berghei in mice (Mus musculus); Active from 40 mg/kg. Also noted: dose 40 mg/kg. The assay is classed as functional, organism-based.

Molecules are shown by their SMILES. The source made the active and inactive calls. The rule behind the calls is not given here.

Turning to `CC(C)(C)OOCN1CCCC1`, the outcome with Mus musculus [1] was Active. The Mean survival time was 7 days with Mus musculus [2], 9.8 days in the assay with Mus musculus [3], 11.8 days with Mus musculus [4] and 5.4 days in the assay with Mus musculus [5]. For the same molecule, the IC50 with Plasmodium falciparum [6], with Plasmodium falciparum [7], in the assay on Plasmodium falciparum [8] and with Plasmodium falciparum [9] was more than 25 uM well-1 in each case. Further, the IC90 in the assay on Plasmodium falciparum [10], in the assay with Plasmodium falciparum [11], in the assay with Plasmodium falciparum [12] and in the assay with Plasmodium falciparum [13] was more than 25 uM well-1 each time.

In the case of `CC(C)(C)OOCN1CCCCC1`, the Mean survival time with Mus musculus [2] was 6.6 days; in the assay on Mus musculus [3], 8.2 days; with Mus musculus [4], 10.2 days; in the assay on Mus musculus [5], 5.2 days. Moreover, in the assay with Mus musculus [14], the outcome was inactive. The IC50 in the assay with Plasmodium falciparum [6] was 3.6 uM well-1; in the assay with Plasmodium falciparum [7] it was 2.9 uM well-1; in the assay on Plasmodium falciparum [8], 5.5 uM well-1; in the assay on Plasmodium falciparum [9], 5 uM well-1. Also, the IC90 with Plasmodium falciparum [10] is on record as 22.5 uM well-1; in the assay with Plasmodium falciparum [11], 24 uM well-1; in the assay on Plasmodium falciparum [12], more than 25 uM well-1; with Plasmodium falciparum [13], more than 25 uM well-1.

As for `CC(C)(C)OOCN(CCO)CCO`, the outcome with Mus musculus [15] was Active. Further, the Mean survival time was 11.6 days in the assay on Mus musculus [2], 12.8 days in the assay on Mus musculus [3], 14 days with Mus musculus [4] and 10.2 days in the assay on Mus musculus [5]. Also, the IC50 with Plasmodium falciparum [6] is reported as 22 uM well-1; in the assay on Plasmodium falciparum [7] it was 10 uM well-1; in the assay on Plasmodium falciparum [8] it was more than 25 uM well-1; in the assay with Plasmodium falciparum [9] it was more than 25 uM well-1. In addition, the IC90 in the assay on Plasmodium falciparum [10], in the assay on Plasmodium falciparum [11], in the assay on Plasmodium falciparum [12] and in the assay on Plasmodium falciparum [13] was more than 25 uM well-1 each time.

Take `CCN(CC)COOC(C)(C)C`: the Mean survival time with Mus musculus [2] was 8.4 days; with Mus musculus [3], 9.4 days; with Mus musculus [4], 12.2 days; in the assay with Mus musculus [5] it was 7.2 days. In addition, in the assay on Mus musculus [14], the outcome was inactive. The IC50 with Plasmodium falciparum [6], in the assay on Plasmodium falciparum [7], with Plasmodium falciparum [8] and with Plasmodium falciparum [9] was more than 25 uM well-1 throughout. Further, the IC90 with Plasmodium falciparum [10], in the assay with Plasmodium falciparum [11], in the assay on Plasmodium falciparum [12] and with Plasmodium falciparum [13] was more than 25 uM well-1 throughout.

Turning to `COC1=CC=C2[C@H]3Cc4ccc(OC)c5c4[C@@]2(CCN3COOC(C)(C)C)[C@H]1O5`, the result in the assay on Mus musculus [16] was inactive. The Mean survival time with Mus musculus [2] turned out to be 40 days; in the assay with Mus musculus [3] it was 6.8 days; in the assay on Mus musculus [4], 7.2 days; with Mus musculus [5] it was 5.2 days. Besides, the IC50 is on record as 0.135 uM well-1 in the assay on Plasmodium falciparum [6], 0.5 uM well-1 with Plasmodium falciparum [7], 1.8 uM well-1 in the assay with Plasmodium falciparum [8] and 0.45 uM well-1 in the assay with Plasmodium falciparum [9]. In addition, the IC90 was determined as 0.47 uM well-1 in the assay with Plasmodium falciparum [10], 0.92 uM well-1 with Plasmodium falciparum [11], 6.4 uM well-1 with Plasmodium falciparum [12] and 5 uM well-1 in the assay on Plasmodium falciparum [13].

On to `CC(C)(C)OOCN(Cc1ccccc1)Cc1ccco1`, for which the Mean survival time in the assay on Mus musculus [2] turned out to be 7.2 days; in the assay with Mus musculus [3], 10.8 days; in the assay on Mus musculus [4] it was 12 days; in the assay with Mus musculus [5] it was 6.4 days. Further, in the assay on Mus musculus [14], the outcome was inactive. Also, the IC50 in the assay on Plasmodium falciparum [6] amounted to 1.45 uM well-1; in the assay on Plasmodium falciparum [7], 1.35 uM well-1; in the assay with Plasmodium falciparum [8] it was 2.1 uM well-1; in the assay with Plasmodium falciparum [9], 2.25 uM well-1. The IC90 in the assay on Plasmodium falciparum [10] turned out to be 2.8 uM well-1; in the assay on Plasmodium falciparum [11], 4.5 uM well-1; in the assay on Plasmodium falciparum [12], 5.5 uM well-1; in the assay on Plasmodium falciparum [13], 5.4 uM well-1.

`CC(C)=CCCC(C)CCN(COOC(C)(C)C)Cc1ccccc1` (stereo not drawn): the outcome in the assay on Mus musculus [1] was Active. For the same molecule, the Mean survival time stood at 6.8 days in the assay with Mus musculus [2], 10.8 days with Mus musculus [3], 12.2 days in the assay with Mus musculus [4] and 5.2 days in the assay with Mus musculus [5]. Also, the IC50 with Plasmodium falciparum [6] stood at 1.6 uM well-1; with Plasmodium falciparum [7], 1.6 uM well-1; in the assay with Plasmodium falciparum [8] it was 4.4 uM well-1; in the assay on Plasmodium falciparum [9], 2.5 uM well-1. The IC90 with Plasmodium falciparum [10] stood at 9 uM well-1; with Plasmodium falciparum [11], 10 uM well-1; with Plasmodium falciparum [12], 10 uM well-1; in the assay with Plasmodium falciparum [13] it was 12 uM well-1.

For the molecule `CC(C)(C)OOCN(Cc1ccccc1)Cc1cccs1`, the result with Mus musculus [1] was Active. Also, the Mean survival time in the assay with Mus musculus [2] is 6.6 days; in the assay on Mus musculus [3], 10.2 days; with Mus musculus [4] it was 14 days; with Mus musculus [5] it was 5.8 days. For the same molecule, the IC50 in the assay with Plasmodium falciparum [6] is 0.9 uM well-1; with Plasmodium falciparum [7], 0.5 uM well-1; with Plasmodium falciparum [8] it was 2.7 uM well-1; with Plasmodium falciparum [9], 2.2 uM well-1. The IC90 in the assay on Plasmodium falciparum [10] is 6 uM well-1; with Plasmodium falciparum [11], 11.5 uM well-1; in the assay with Plasmodium falciparum [12], 4.8 uM well-1; in the assay with Plasmodium falciparum [13], 12 uM well-1.

With `CC(C)(C)OOCN1CCOCC1`, the Mean survival time came to 7.6 days in the assay with Mus musculus [2], 8.8 days in the assay on Mus musculus [3], 11.4 days in the assay on Mus musculus [4] and 6.8 days with Mus musculus [5]. The outcome in the assay on Mus musculus [14] was inactive. Besides, the IC50 is 0.058 uM well-1 with Plasmodium falciparum [6], 0.064 uM well-1 in the assay with Plasmodium falciparum [7], 0.15 uM well-1 with Plasmodium falciparum [8] and 0.16 uM well-1 in the assay on Plasmodium falciparum [9]. Besides, the IC90 in the assay with Plasmodium falciparum [10] worked out at 2.6 uM well-1; in the assay on Plasmodium falciparum [11], 2.9 uM well-1; in the assay on Plasmodium falciparum [12] it was 3 uM well-1; with Plasmodium falciparum [13] it was 2.15 uM well-1.

As to `CC(C)(C)OOCN(C1CCCCC1)C1CCCCC1`, the outcome in the assay on Mus musculus [1] was Active. Besides, the Mean survival time was found to be 8.6 days in the assay with Mus musculus [2], 9.8 days in the assay with Mus musculus [3], 13.4 days in the assay with Mus musculus [4] and 7.6 days in the assay with Mus musculus [5]. Also, the IC50 in the assay on Plasmodium falciparum [6] worked out at 1.5 uM well-1; in the assay with Plasmodium falciparum [7] it was 2.1 uM well-1; in the assay on Plasmodium falciparum [8], 5 uM well-1; in the assay on Plasmodium falciparum [9], 5 uM well-1. Besides, the IC90 in the assay on Plasmodium falciparum [10] is given as 21 uM well-1; with Plasmodium falciparum [11] it was more than 25 uM well-1; in the assay on Plasmodium falciparum [12], 25 uM well-1; with Plasmodium falciparum [13] it was more than 25 uM well-1.

In the case of `C[C@@H]1CC[C@H]2[C@@H](C)C(=O)O[C@@H]3O[C@@]4(C)CC[C@@H]1[C@]32OO4` [ARTEMISININ], the result in the assay on Mus musculus [17] was Active. The molecule also returned a Mean survival time in the assay on Mus musculus [5] of 10.8 days. The IC50 is reported as 0.01 uM well-1 with Plasmodium falciparum [6], 0.01 uM well-1 in the assay on Plasmodium falciparum [7], 0.015 uM well-1 with Plasmodium falciparum [8] and 0.01 uM well-1 in the assay on Plasmodium falciparum [9]. The IC90 in the assay on Plasmodium falciparum [10] came out at 0.028 uM well-1; with Plasmodium falciparum [11], 0.028 uM well-1; in the assay with Plasmodium falciparum [12], 0.03 uM well-1; with Plasmodium falciparum [13] it was 0.029 uM well-1.

On to `CC(C)=CCCC(C)CCN(CCO)COOC(C)(C)C` (stereo not drawn), for which the result in the assay on Mus musculus [1] was Active. Moreover, the Mean survival time was found to be 7.3 days in the assay with Mus musculus [2], 11.2 days with Mus musculus [3], 15 days in the assay on Mus musculus [4] and 6.2 days in the assay on Mus musculus [5]. Also, the IC50 came to 3.2 uM well-1 in the assay on Plasmodium falciparum [6], 1.4 uM well-1 in the assay with Plasmodium falciparum [7], 7.8 uM well-1 with Plasmodium falciparum [8] and 3.8 uM well-1 in the assay on Plasmodium falciparum [9]. Also, the IC90 in the assay with Plasmodium falciparum [10], in the assay on Plasmodium falciparum [11], in the assay on Plasmodium falciparum [12] and in the assay on Plasmodium falciparum [13] was more than 25 uM well-1 in each case.
